# Measured values from US5587475A, “Derivatized virginiamycin M1” (University of Notre Dame, priority 1995, dated 1996).
# Experiments:
# Micrococcus luteus = experiment: in vivo activity, M.I.C. on M. luteus (VM1 derivatives alone, without VS1); type: cell-based; parameters: key: (+) indicates multiplication of bacteria; settings: M. luteus in LBroth, 18 h at 37° C. with shaking
# Protocol: The synthesized derivatives of the present invention have been tested for antibacterial activity (in solid and liquid medium), ribosome binding affinity and synergistic activity with virginiamycin S. The tests for biological activity were carried out both in vivo and in vitro. The in vivo tests were carried out using Micrococcus luteus as the test organism with the VM1 derivatives alone (without VS1). Minimum inhibitory concentrations (MIC values) were determined on agar broth plates by standard microbiological procedures, with a range of concentrations of the VM derivatives applied to the plates. The in vitro tests of the VM derivatives were performed together with VS1, and took advantage of the unique fluorescence (F) inherent in VS1. The results are summarized in the following tables, wherein the activities are compared to virginiamycin (VM1). | M. luteus in LBroth, 18 h at 37° C. with shaking. | M. luteus in LBroth, 18 h at 37° C. with shaking.
# ribosomes = experiment: in vitro activity: binding to free ribosomes, VS1 fluorescence with erythromycin displacement; parameters: key to kobs (symbol): (*) too small to be measured. t/2 is very large; settings: in vitro Activity of VM1-Carboxylic Acid Derivatives; together with VS1, fluorescence
# Protocol: The in vivo tests were carried out using Micrococcus luteus as the test organism with the VM1 derivatives alone (without VS1). Minimum inhibitory concentrations (MIC values) were determined on agar broth plates by standard microbiological procedures, with a range of concentrations of the VM derivatives applied to the plates. The in vitro tests of the VM derivatives were performed together with VS1, and took advantage of the unique fluorescence (F) inherent in VS1. […] Using spectrofluorometry, an increase in fluorescence can be measured when ribosomes are added to a VS1 solution. Erythromycin is known to bind at the same position on the ribosome (50-S subunit) as VS1, and when it is added to the VS1 /ribosomal mixture, a decrease in fluorescence is seen. If VM1 is added to the VS1 /ribosomal/erythromycin mixture, an increase in fluorescence can be measured. Presumably, a conformational change of the ribosomes occurs upon binding of VM1, which allows VS1 to bind preferentially and releases erythromycin from the ribosomes. The VM1 derivatives would also display this type of behavior if they bind to the ribosomes.
smiles,measurement,setting,value
"CC1=C\[C@@H](O)CC(=O)Cc2nc(co2)C(=O)N2CC[C@H](SCCC(=O)O)[C@H]2C(=O)O[C@H](C(C)C)[C@H](C)/C=C/C(=O)NC\C=C\1 [Carboxylic b S,R]","in vivo Acitivity of VM1-Carboxylic Derivatives, M.I.C. on M. luteus (multiplication of bacteria)",Micrococcus luteus; Concentration 0.0625 μg/mL,+
same,"in vivo Acitivity of VM1-Carboxylic Derivatives, M.I.C. on M. luteus (multiplication of bacteria)",Micrococcus luteus; Concentration 0.125 μg/mL,+
same,"in vivo Acitivity of VM1-Carboxylic Derivatives, M.I.C. on M. luteus (multiplication of bacteria)",Micrococcus luteus; Concentration 0.25 μg/mL,+
same,"in vivo Acitivity of VM1-Carboxylic Derivatives, M.I.C. on M. luteus (multiplication of bacteria)",Micrococcus luteus; Concentration 0.5 μg/mL,+
same,"in vivo Acitivity of VM1-Carboxylic Derivatives, M.I.C. on M. luteus (multiplication of bacteria)",Micrococcus luteus; Concentration 1 μg/mL,+
same,"in vivo Acitivity of VM1-Carboxylic Derivatives, M.I.C. on M. luteus (multiplication of bacteria)",Micrococcus luteus; Concentration 2 μg/mL,+
same,"in vivo Acitivity of VM1-Carboxylic Derivatives, M.I.C. on M. luteus (multiplication of bacteria)",Micrococcus luteus; Concentration 4 μg/mL,+
same,"in vivo Acitivity of VM1-Carboxylic Derivatives, M.I.C. on M. luteus (multiplication of bacteria)",Micrococcus luteus; Concentration 8 μg/mL,+
same,"in vivo Acitivity of VM1-Carboxylic Derivatives, M.I.C. on M. luteus (multiplication of bacteria)",Micrococcus luteus; Concentration 16 μg/mL,+
same,"in vivo Acitivity of VM1-Carboxylic Derivatives, M.I.C. on M. luteus (multiplication of bacteria)",Micrococcus luteus; Concentration 32 μg/mL,+
same,"in vivo Acitivity of VM1-Carboxylic Derivatives, M.I.C. on M. luteus (multiplication of bacteria)",Micrococcus luteus; Concentration 128 μg/mL,+
same,kobs (symbol),ribosomes,*
